Data as given in ChEMBL document CHEMBL3885881, “DrugMatrix”.

Organism: Rattus norvegicus
Test: DrugMatrix - Regimen: Daily Repeat
Type: toxicity, organism-based, Sprague-Dawley
Parameters: regimen Daily Repeat, gender Male, age 6-8 weeks
Details: in vivo, po, route oral GAVAGE, […]; for ABSOLUTE BASOPHIL / ABSOLUTE EOSINOPHIL / ABSOLUTE LYMPHOCYTE / ABSOLUTE SEGMENTED NEUTROPHIL / BASOPHIL / EOSINOPHIL / ERYTHROCYTE COUNT / HEMATOCRIT / HEMOGLOBIN / LYMPHOCYTE / MEAN CORPUSCULAR HEMOGLOBIN / MEAN CORPUSCULAR HEMOGLOBIN CONCENTRATION / MEAN CORPUSCULAR VOLUME / MONOCYTE / NUCLEATED RED BLOOD CELLS / PLATELET COUNT: tissue Blood; for ALANINE AMINOTRANSFERASE / ALBUMIN / ALKALINE PHOSPHATASE / ASPARTATE AMINOTRANSFERASE / BLOOD UREA NITROGEN / CARBON DIOXIDE / CHOLESTEROL / CREATINE PHOSPHOKINASE / CREATININE / GLUCOSE / LACTATE DEHYDROGENASE / POTASSIUM / SODIUM / TOTAL BILIRUBIN / TOTAL PROTEIN / URIC ACID: tissue Plasma
[1] = 0 mg/kg, 72 h, dose level Control, time 3 day
[2] = 0 mg/kg, 120 h, dose level Control, time 5 day
[3] = 20 mg/kg, 72 h, dose level Low, time 3 day

COc1ccccc1OCCNCC(O)COc1cccc2[nH]c3ccccc3c12 (stereo unspecified) [CARVEDILOL]
ABSOLUTE BASOPHIL [1]: 0 CELLS/uL
ABSOLUTE EOSINOPHIL [1]: 0 CELLS/uL
ABSOLUTE LYMPHOCYTE [1]: 9244.83 CELLS/uL
ABSOLUTE SEGMENTED NEUTROPHIL [1]: 869.83 CELLS/uL
BASOPHIL [1]: 0%
EOSINOPHIL [1]: 0%
ERYTHROCYTE COUNT [1]: 5.43 x10E6/uL
HEMATOCRIT [1]: 34.03%
HEMOGLOBIN [1]: 13.27 G/DL
LYMPHOCYTE [1]: 90.33%
MEAN CORPUSCULAR HEMOGLOBIN [1]: 24.48 pg
MEAN CORPUSCULAR HEMOGLOBIN CONCENTRATION [1]: 39.03 G/DL
MEAN CORPUSCULAR VOLUME [1]: 62.75 fL
MONOCYTE [1]: 1%
NUCLEATED RED BLOOD CELLS [1]: 0.17 /100WBC
PLATELET COUNT [1]: 989 x10E3/uL
ALANINE AMINOTRANSFERASE [1]: 77 u/L
ALBUMIN [1]: 3.97 G/DL
ALKALINE PHOSPHATASE [1]: 464.83 u/L
ASPARTATE AMINOTRANSFERASE [1]: 89.83 u/L
BLOOD UREA NITROGEN [1]: 12.17 mg/dL
CARBON DIOXIDE [1]: 34.17 mmol/L
CHOLESTEROL [1]: 75.17 mg/dL
CREATINE PHOSPHOKINASE [1]: 367.67 u/L
CREATININE [1]: 0.16 mg/dL
GLUCOSE [1]: 142.67 mg/dL
LACTATE DEHYDROGENASE [1]: 139.33 u/L
POTASSIUM [1]: 6.38 MEQ/L
SODIUM [1]: 143.2 MEQ/L
TOTAL BILIRUBIN [1]: 0.2 mg/dL
TOTAL PROTEIN [1]: 5.77 G/DL
URIC ACID [1]: 0.7 mg/dL
ABSOLUTE BASOPHIL [2]: 0 CELLS/uL
ABSOLUTE EOSINOPHIL [2]: 0 CELLS/uL
ABSOLUTE LYMPHOCYTE [2]: 8295.33 CELLS/uL
ABSOLUTE SEGMENTED NEUTROPHIL [2]: 970 CELLS/uL
BASOPHIL [2]: 0%
EOSINOPHIL [2]: 0%
ERYTHROCYTE COUNT [2]: 5.74 x10E6/uL
HEMATOCRIT [2]: 36.22%
HEMOGLOBIN [2]: 13.85 G/DL
LYMPHOCYTE [2]: 88.67%
MEAN CORPUSCULAR HEMOGLOBIN [2]: 24.13 pg
MEAN CORPUSCULAR HEMOGLOBIN CONCENTRATION [2]: 38.25 G/DL
MEAN CORPUSCULAR VOLUME [2]: 63.08 fL
MONOCYTE [2]: 1%
NUCLEATED RED BLOOD CELLS [2]: 0.17 /100WBC
PLATELET COUNT [2]: 883.83 x10E3/uL
ALANINE AMINOTRANSFERASE [2]: 64.5 u/L
ALBUMIN [2]: 4.12 G/DL
ALKALINE PHOSPHATASE [2]: 425.67 u/L
ASPARTATE AMINOTRANSFERASE [2]: 88.5 u/L
BLOOD UREA NITROGEN [2]: 14.17 mg/dL
CARBON DIOXIDE [2]: 30.5 mmol/L
CHOLESTEROL [2]: 55.33 mg/dL
CREATINE PHOSPHOKINASE [2]: 287.17 u/L
CREATININE [2]: 0.2 mg/dL
GLUCOSE [2]: 162.83 mg/dL
LACTATE DEHYDROGENASE [2]: 111.33 u/L
POTASSIUM [2]: 5.13 MEQ/L
SODIUM [2]: 143.93 MEQ/L
TOTAL BILIRUBIN [2]: 0.17 mg/dL
TOTAL PROTEIN [2]: 5.9 G/DL
URIC ACID [2]: 0.77 mg/dL
ABSOLUTE BASOPHIL [3]: 0 CELLS/uL
ABSOLUTE EOSINOPHIL [3]: 67.33 CELLS/uL
ABSOLUTE LYMPHOCYTE [3]: 15458 CELLS/uL
ABSOLUTE SEGMENTED NEUTROPHIL [3]: 1844 CELLS/uL
BASOPHIL [3]: 0%
EOSINOPHIL [3]: 0.33%
ERYTHROCYTE COUNT [3]: 5.47 x10E6/uL
HEMATOCRIT [3]: 34.53%
HEMOGLOBIN [3]: 13.3 G/DL
LYMPHOCYTE [3]: 89.33%
MEAN CORPUSCULAR HEMOGLOBIN [3]: 24.47 pg
MEAN CORPUSCULAR HEMOGLOBIN CONCENTRATION [3]: 38.5 G/DL
MEAN CORPUSCULAR VOLUME [3]: 63.47 fL
MONOCYTE [3]: 0.33%
NUCLEATED RED BLOOD CELLS [3]: 0 /100WBC
PLATELET COUNT [3]: 907.33 x10E3/uL
ALANINE AMINOTRANSFERASE [3]: 76.33 u/L
ALBUMIN [3]: 4.1 G/DL
ALKALINE PHOSPHATASE [3]: 486 u/L
ASPARTATE AMINOTRANSFERASE [3]: 96.67 u/L
BLOOD UREA NITROGEN [3]: 11 mg/dL
CARBON DIOXIDE [3]: 32.67 mmol/L
CHOLESTEROL [3]: 75.67 mg/dL
CREATINE PHOSPHOKINASE [3]: 501.33 u/L
CREATININE [3]: 0.24 mg/dL
GLUCOSE [3]: 131 mg/dL
LACTATE DEHYDROGENASE [3]: 152.67 u/L
POTASSIUM [3]: 5.98 MEQ/L
SODIUM [3]: 145.6 MEQ/L
TOTAL BILIRUBIN [3]: 0.17 mg/dL
TOTAL PROTEIN [3]: 5.8 G/DL
URIC ACID [3]: 0.6 mg/dL
